Test results from US20220340547A1, “INDOLE DERIVATIVE-CONTAINING INHIBITOR, PREPARATION METHOD THEREFOR AND APPLICATION THEREOF” (Shanghi Hansoh Biosoh Biomedical Co., Ltd., priority 2019, published 2022).

Assays:
[1] = test system: A431 cell line; assay: Proliferation of A431 cell line (CellTiter-Glo); assay type: cell-based; settings: Homo sapiens, A-431, 72 h
Protocol: Test Example 3. Determination of the Inhibitory Effect of the Compound of the Present Invention on the Proliferation of Ba/F3 EGFR Mutant Cell Line and A431 Cell Line
(§1) Experimental objective: The objective of this test example is to determine the inhibitory effect of the compound on the proliferation of Ba/F3 EGFR mutant cell line and A431 cell line
(§2) Experimental instruments: Microplate reader (BioTek Synergy H1), pipette (Eppendorf & Rainin).
(§3) A431 cells were cultured, and harvested after reaching a suitable density. The cells were adjusted to an appropriate cell concentration with the complete medium. The cell suspension were spread on a 96-well plate (90 μL per well), and the plate was placed in a 37° C., 5% CO2 incubator overnight to let the cells adhere to the wall. Solutions of the compound at different concentrations were formulated with DMSO and culture medium. Solvent control was set. The solution of the compound was added to the 96-well plate (10 L per well), and the plate was incubated in the 37° C., 5% CO2 incubator for 72 h. CellTiter-Glo solution was added and mixed well by shaking, and the plate was incubated in the dark for 10 minutes. The values were measured by BioTek Synergy H1 microplate reader.
(§4) Experimental Data Processing Method:
(§5) The inhibition rate was calculated using the […] signal value. The concentration and inhibition rate were fitted to a nonlinear regression curve by Graphpad Prism software to obtain the IC50 value.

[2] = target: Ba/F3 EGFR-D770-N771ins_SVD (Homo sapiens, UniProt P00533, DUP768-770, cells depend on it); assay: Proliferation of Ba/F3 EGFR mutant cell line (CellTiter-Glo); assay type: cell-based, mouse; settings: 72 h to 144 h, read-out: Ba/F3 EGFR-D770-N771ins_SVD IC50
Sequence of Ba/F3 EGFR-D770-N771ins_SVD (P00533 with tags, fused parts or gaps DUP768-770): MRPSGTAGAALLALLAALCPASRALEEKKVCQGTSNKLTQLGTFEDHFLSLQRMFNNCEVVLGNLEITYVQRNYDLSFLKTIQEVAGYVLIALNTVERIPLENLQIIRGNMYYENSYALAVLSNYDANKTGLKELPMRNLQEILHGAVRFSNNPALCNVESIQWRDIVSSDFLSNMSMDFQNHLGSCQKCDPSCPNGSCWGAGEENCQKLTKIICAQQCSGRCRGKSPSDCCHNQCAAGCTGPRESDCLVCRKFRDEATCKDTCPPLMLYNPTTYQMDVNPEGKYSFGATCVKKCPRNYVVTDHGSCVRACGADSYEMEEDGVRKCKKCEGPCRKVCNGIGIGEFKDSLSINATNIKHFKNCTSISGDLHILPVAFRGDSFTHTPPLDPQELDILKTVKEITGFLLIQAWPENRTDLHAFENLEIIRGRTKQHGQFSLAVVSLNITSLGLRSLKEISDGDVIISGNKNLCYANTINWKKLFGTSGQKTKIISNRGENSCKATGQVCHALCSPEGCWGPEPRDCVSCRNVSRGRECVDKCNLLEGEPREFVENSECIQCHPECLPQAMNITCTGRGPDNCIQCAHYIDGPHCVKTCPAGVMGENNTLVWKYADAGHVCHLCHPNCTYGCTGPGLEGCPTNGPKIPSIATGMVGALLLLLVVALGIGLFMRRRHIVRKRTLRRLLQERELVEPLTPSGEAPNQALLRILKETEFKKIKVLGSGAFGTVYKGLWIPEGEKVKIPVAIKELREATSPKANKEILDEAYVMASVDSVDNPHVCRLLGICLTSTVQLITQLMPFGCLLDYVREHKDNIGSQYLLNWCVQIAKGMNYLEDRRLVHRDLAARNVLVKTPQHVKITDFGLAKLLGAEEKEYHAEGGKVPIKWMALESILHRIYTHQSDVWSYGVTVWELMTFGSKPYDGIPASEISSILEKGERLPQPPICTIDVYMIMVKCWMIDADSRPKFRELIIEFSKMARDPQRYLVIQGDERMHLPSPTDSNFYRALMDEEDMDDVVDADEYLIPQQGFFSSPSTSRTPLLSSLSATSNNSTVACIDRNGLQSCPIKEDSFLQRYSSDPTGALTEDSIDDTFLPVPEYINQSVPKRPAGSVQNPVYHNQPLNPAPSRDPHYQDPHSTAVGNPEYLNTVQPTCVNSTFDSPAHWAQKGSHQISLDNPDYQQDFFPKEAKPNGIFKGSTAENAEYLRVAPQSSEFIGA
Protocol: Determination of the Inhibitory Effect of the Compound of the Present Invention on the Proliferation of Ba/F3 EGFR Mutant Cell Line and A431 Cell Line
as §1, §2
as §3, with “Ba/F3 EGFR mutant” for “A431”, “The solution of the compound was added to the 96-well plate (10 L per well), and the plate was incubated in the 37° C., 5% CO2 incubator for 72 h.” left out
as §4, §5

[3] = target: EGFR D770_N771insNPG (Homo sapiens, UniProt P00533, INS770NPG); assay: TR-FRET inhibition of kinase activity of EGFR exon 20 insertion mutation; assay type: biochemical
Sequence of EGFR D770_N771insNPG (P00533 with tags, fused parts or gaps INS770NPG limits assumed): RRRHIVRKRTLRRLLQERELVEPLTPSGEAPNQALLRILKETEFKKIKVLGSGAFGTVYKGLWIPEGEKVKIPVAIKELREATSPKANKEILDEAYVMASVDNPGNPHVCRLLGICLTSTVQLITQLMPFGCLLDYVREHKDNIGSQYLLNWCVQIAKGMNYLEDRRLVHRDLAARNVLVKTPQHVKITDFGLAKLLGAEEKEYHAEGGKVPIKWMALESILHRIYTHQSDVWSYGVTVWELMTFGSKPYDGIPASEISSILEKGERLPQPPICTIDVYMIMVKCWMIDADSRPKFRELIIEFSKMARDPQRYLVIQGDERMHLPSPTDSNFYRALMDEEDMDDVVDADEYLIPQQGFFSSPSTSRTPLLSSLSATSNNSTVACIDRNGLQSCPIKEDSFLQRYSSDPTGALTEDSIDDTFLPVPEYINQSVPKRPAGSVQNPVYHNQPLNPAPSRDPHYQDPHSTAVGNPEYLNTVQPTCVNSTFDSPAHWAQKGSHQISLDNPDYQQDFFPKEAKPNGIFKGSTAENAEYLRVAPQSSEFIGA
Excerpt: Determination of the Inhibitory Effect of the Compound of the Present Invention on the Kinase Activity of EGFR Exon 20 Insertion Mutation
Experimental objective: The objective of this test example is to determine the inhibitory effect of the compound on the kinase activity of EGFR exon 20 insertion mutation.
Experimental process: The experiment applied the TR-FRET (time-resolved fluorescence resonance energy transfer) method to study the inhibitory effect of the compound on the kinase activity of EGFR exon 20 insertion mutation. The experiment was carried out in a 384-well plate. Experimental buffer (50 mM HEPES, 1 mM EGTA, 10 mM MgCl2, 2 mM DTT, 0.01% Tween-20) was formulated. The compound was diluted in gradient to different concentrations with the experimental buffer. 2.5 μL of the solution was added to each well of the 384-well plate. 2.5 μL of diluted EGFR kinase solution (0.001-0.5 nM) was added, and the plate was incubated at room temperature for 10 minutes. 5 μL of ULight-poly GT/ATP mixed solution was added, and the plate was incubated at room temperature for 30 to 60 minutes. 5 μL of EDTA stop solution and 5 μL of Eu-labeled antibody detection solution were added, and the plate was incubated at room temperature for 1 hour.
as §4
The concentration and inhibition rate were fitted to a nonlinear regression curve by Graphpad Prism software to obtain the IC50 value.

Row | IC50 [1] | GI50 [2] | IC50 [3] | Structure (SMILES)
1 | 133 nM | 34.6 nM | 0.55 nM | C=CC(=O)Nc1cc(Nc2ncc(-c3ncco3)c(-c3cn(C4CC4)c4ccccc34)n2)c(OC)cc1N1C[C@@H]2CCN(C)[C@@H]2C1 (relative stereo) [Example 40, Cis N-(5-((4-(1-Cyclopropyl-1H-indol-3-yl)-5-(oxazol-2-yl)pyrimidin-2-yl)amino)-4-methoxy-2-(1-methylhexahydropyrrolo[3,4-b]pyrrol-5(1H)-yl)phenyl)acrylamide]
2 | 162 nM | 24.8 nM | 0.43 nM | C=CC(=O)Nc1cc(Nc2ncc(C#N)c(-c3cn(C4CC4)c4ccccc34)n2)c(OC)cc1N1C[C@H]2CN(C)C[C@H]2C1 [Example 35, N-(5-((5-Cyano-4-(1-cyclopropyl-1H-indol-3-yl)pyrimidin-2-yl)amino)-4-methoxy-2-((3aR,6aS)-5-methylhexahydropyrrolo[3,4-c]pyrrol-2(1H)-yl)phenyl)acrylamide]
3 | 439 nM | 27.1 nM | – | C=CC(=O)Nc1cc(Nc2ncc(-c3ncco3)c(-c3cn(C4CC4)c4ccccc34)n2)c(OC)cc1N1C[C@H]2CN(C)C[C@H]2C1 [Example 36, N-(5-((4-(1-Cyclopropyl-1H-indol-3-yl)-5-(oxazol-2-yl)pyrimidin-2-yl)amino)-4-methoxy-2-((3aR,6aS)-5-methylhexahydropyrrolo[3,4-c]pyrrol-2(1H)-yl)phenyl)acrylamide]
4 | 146 nM | 34.6 nM | 0.45 nM | C=CC(=O)Nc1cc(Nc2ncc(-c3ncco3)c(-c3cn(C4CC4)c4ccccc34)n2)c(OC)cc1N(C)CC1CCCN1C (centres unmarked) [Example 38, N-(5-((4-(1-Cyclopropyl-1H-indol-3-yl)-5-(oxazol-2-yl)pyrimidin-2-yl)amino)-4-methoxy-2-(methyl((1-methylpyrrolidin-2-yl)methyl)amino)phenyl)acrylamide]
5 | 210 nM | 53.4 nM | 1 nM | C=CC(=O)Nc1cc(Nc2ncc(-c3nccs3)c(-c3cn(C4CC4)c4ccccc34)n2)c(OC)cc1N1C[C@H]2CN(C)C[C@H]2C1 [Example 45, N-(5-((4-(1-Cyclopropyl-1H-indol-3-yl)-5-(thiazol-2-yl)pyrimidin-2-yl)amino)-4-methoxy-2-((3aR,6aS)-5-methylhexahydropyrrolo[3,4-c]pyrrol-2(1H)-yl)phenyl)acrylamide]
6 | 51.7 nM | 33.1 nM | – | C=CC(=O)Nc1cc(Nc2ncc(-c3ccccc3)c(-c3cn(C4CC4)c4ccccc34)n2)c(OC)cc1N1C[C@H]2CN(C)C[C@H]2C1 [Example 47, N-(5-((4-(1-Cyclopropyl-1H-indol-3-yl)-5-phenylpyrimidin-2-yl)amino)-4-methoxy-2-((3aR,6aS)-5-methylhexahydropyrrolo[3,4-c]pyrrol-2(1H)-yl)phenyl)acrylamide]
7 | 306 nM | 34.9 nM | 0.79 nM | C=CC(=O)Nc1cc(Nc2ncc(-c3ncco3)c(-c3cn(C4CC4)c4ccccc34)n2)c(OC)cc1N1CC(N(C)C)C1 [Example 52, N-(5-((4-(1-Cyclopropyl-1H-indol-3-yl)-5-(oxazol-2-yl)pyrimidin-2-yl)amino)-2-(3-(dimethylamino)azetidin-1-yl)-4-methoxyphenyl)acrylamide]
8 | 182 nM | 21.7 nM | 0.5 nM | C=CC(=O)Nc1cc(Nc2ncc(-c3ncco3)c(-c3cn(C4CC4)c4ccccc34)n2)c(OC)cc1N1CC(N2CCCC2)C1 [Example 53, N-(5-((4-(1-Cyclopropyl-1H-indol-3-yl)-5-(oxazol-2-yl)pyrimidin-2-yl)amino)-4-methoxy-2-(3-(pyrrolidin-1-yl)azetidin-1-yl)phenyl)acrylamide]
9 | 144 nM | 45.3 nM | – | C=CC(=O)Nc1cc(Nc2ncc(-c3ncco3)c(-c3cn(C4CC4)c4ccccc34)n2)c(OC)cc1N1CC[C@H](N(C)C)C1 [Example 56, (S)—N-(5-((4-(1-Cyclopropyl-1H-indol-3-yl)-5-(oxazol-2-yl)pyrimidin-2-yl)amino)-2-(3-(dimethylamino)pyrrolidin-1-yl)-4-methoxyphenyl)acrylamide]
10 | 113 nM | 28.1 nM | 0.82 nM | C=CC(=O)Nc1cc(Nc2ncc(-c3ncco3)c(-c3cn(C4CC4)c4ccccc34)n2)c(OC)cc1N1CC[C@@H](N(C)C)C1 [Example 57, (R)—N-(5-((4-(1-Cyclopropyl-1H-indol-3-yl)-5-(oxazol-2-yl)pyrimidin-2-yl)amino)-2-(3-(dimethylamino)pyrrolidin-1-yl)-4-methoxyphenyl)acrylamide]
11 | 28.9 nM | 17.4 nM | 0.39 nM | C=CC(=O)Nc1cc(Nc2ncc(-c3cccnc3)c(-c3cn(C4CC4)c4ccccc34)n2)c(OC)cc1N1C[C@H]2CN(C)C[C@H]2C1 [Example 64, N-(5-((4-(1-Cyclopropyl-1H-indol-3-yl)-5-(pyridin-3-yl)pyrimidin-2-yl)amino)-4-methoxy-2-((3aR,6aS)-5-methylhexahydropyrrolo[3,4-c]pyrrol-2(1H)-yl)phenyl)acrylamide]
12 | 238 nM | 54.9 nM | – | C=CC(=O)Nc1cc(Nc2ncc(-c3ccn(C)n3)c(-c3cn(C4CC4)c4ccccc34)n2)c(OC)cc1N1C[C@H]2CN(C)C[C@H]2C1 [Example 71, N-(5-((4-(1-Cyclopropyl-1H-indol-3-yl)-5-(1-methyl-1H-pyrazol-3-yl)pyrimidin-2-yl)amino)-4-methoxy-2-((3aR,6aS)-5-methylhexahydropyrrolo[3,4-c]pyrrol-2(1H)-yl)phenyl)acrylamide]
13 | 258 nM | 48.2 nM | 0.5 nM | C=CC(=O)Nc1cc(Nc2ncc(C#N)c(-c3cn(C4CC4)c4ccccc34)n2)c(OC)cc1N1CC[C@@H](N(C)C)C1 [Example 78, (R)—N-(5-((5-Cyano-4-(1-cyclopropyl-1H-indol-3-yl)pyrimidin-2-yl)amino)-2-(3-(dimethylamino)pyrrolidin-1-yl)-4-methoxyphenyl)acrylamide]
14 | 168 nM | 49.1 nM | 0.78 nM | C=CC(=O)Nc1cc(Nc2ncc(C#N)c(-c3cn(C4CC4)c4ccccc34)n2)c(OC)cc1N1C[C@H]2CCN(C)[C@H]2C1 [Example 109, N-(5-((5-Cyano-4-(1-cyclopropyl-1H-indol-3-yl)pyrimidin-2-yl)amino)-4-methoxy-2-((3aR,6aR)-1-methylhexahydropyrrolo[3,4-b]pyrrol-5(1H)-yl)phenyl)acrylamide]
15 | 34.1 nM | 21.2 nM | 0.18 nM | C=CC(=O)Nc1cc(Nc2ncc(C#N)c(-c3cn(C4COC4)c4ccccc34)n2)c(OC)cc1N(C)CCN(C)C [Example 111, N-(5-((5-cyano-4-(1-(oxetan-3-yl)-1H-indol-3-yl)pyrimidin-2-yl)amino)-2-((2-(dimethylamino)ethyl)(methyl)amino)-4-methoxyphenyl)acrylamide]
16 | 201 nM | 45.1 nM | 0.55 nM | C=CC(=O)Nc1cc(Nc2ncc(C#N)c(-c3cn(C4CC4)c4ccc(OC)cc34)n2)c(OC)cc1N(C)CCN(C)C [Example 118, N-(5-((5-Cyano-4-(1-cyclopropyl-5-methoxy-1H-indol-3-yl)pyrimidin-2-yl)amino)-2-((2-(dimethylamino)ethyl)(methyl)amino)-4-methoxyphenyl)acrylamide]
